Values joined by “and” are separate entries in the source; they are usually repeats but may differ in a detail not shown here. Identical values can stand only once. Like-named read-outs stand apart in the source and are kept apart here.
Assays:
[1] = Plasma concentrations during 24-hour continuous intravenous infusion; type: in vivo, Sprague-Dawley rats; conditions: Sprague-Dawley, rat, plasma, iv
Description: The safety and pharmacokinetics of PPTN (KB-1801) in rats receiving continuous intravenous injections of SBECD-containing solutions were analyzed. Three cohorts of six male and six female rats each were given continuous intravenous infusion of PPTN (KB-1801) at 10 mg/kg/day, 30 mg/kg/day or 100 mg/kg/day in a dosing solution containing PPTN at 0.25 mg/mL, 0.75 mg/mL or 2.5 mg/mL and SBECD at about 3.8%. Dosing volume was 40 mIkg/day. [table]

[2] = Potency and purity of diluted dosing solutions after manufacture and shipping; type: physicochemical; conditions: for [KB-1801] determined by HPLC assay: shipped at ambient temperature
Description: The stability of high-concentration PPTN solutions containing SBECD were analyzed under conditions used for product manufacturing and distribution. A stock solution containing 8.6 mg/mL PPTN, 12% SBECD in saline was prepared as described above and shipped under refrigerated conditions. Seven days after manufacture, the stock solution was diluted to make dosing solutions for administration as a continuous intravenous infusion as indicated in Table 14 and Table 15.
Samples of diluted dosing solutions were shipped at ambient temperature and analyzed for PPTN (KB-1801) potency and purity.

[3] = female, 100 mg/kg, female Sprague-Dawley rats, 24-hour intravenous infusion at 100 mg/kg, read-out: Plasma concentration, Mean
[4] = female, 100 mg/kg, female Sprague-Dawley rats, 24-hour intravenous infusion at 100 mg/kg, read-out: Plasma concentration, individual animal
[5] = male, 10 mg/kg, male Sprague-Dawley rats, 24-hour intravenous infusion at 10 mg/kg, read-out: Plasma concentration, Mean
[6] = male, 10 mg/kg, male Sprague-Dawley rats, 24-hour intravenous infusion at 10 mg/kg, read-out: Plasma concentration, individual animal
[7] = male, 30 mg/kg, male Sprague-Dawley rats, 24-hour intravenous infusion at 30 mg/kg, read-out: Plasma concentration, Mean
[8] = male, 30 mg/kg, male Sprague-Dawley rats, 24-hour intravenous infusion at 30 mg/kg, read-out: Plasma concentration, individual animal
[9] = male, 100 mg/kg, male Sprague-Dawley rats, 24-hour intravenous infusion at 100 mg/kg, read-out: Plasma concentration, Mean
[10] = male, 100 mg/kg, male Sprague-Dawley rats, 24-hour intravenous infusion at 100 mg/kg, read-out: Plasma concentration, individual animal
[11] = dosing solution, targeted [KB-1801] 0.25 mg/mL
[12] = dosing solution, targeted [KB-1801] 0.75 mg/mL
[13] = dosing solution, targeted [KB-1801] 2.5 mg/mL

Compound: O=C(O)c1cc(-c2ccc(C3CCNCC3)cc2)c2ccc(-c3ccc(C(F)(F)F)cc3)cc2c1 [KB-1801, 4-[4-(piperidin-4-yl)phenyl]-7-[4-(trifluoromethyl)phenyl]-2-naphthoic acid]
- concentration at 24 h ([1]; female, 30 mg/kg, female Sprague-Dawley rats, 24-hour intravenous infusion at 30 mg/kg, read-out: Plasma concentration, Mean): 2500 ng/mL
- concentration at 1 h [1, 3]: 2040 ng/mL
- concentration at 1 h [1, 4]: 2630 ng/mL
- concentration at 2 h [1, 3]: 2310 ng/mL
- concentration at 4 h [1, 3]: 5210 ng/mL
- concentration at 4 h [1, 4]: 4540 ng/mL
- concentration at 6 h [1, 3]: 4300 ng/mL
- concentration at 6 h [1, 4]: 3550 ng/mL
- concentration at 8 h [1, 3]: 5660 ng/mL
- concentration at 8 h [1, 4]: 6390 ng/mL
- concentration at 24 h [1, 3]: 8150 ng/mL
- concentration at 24 h [1, 4]: 5590 ng/mL
- concentration at 1 h [1, 5]: 216 ng/mL
- concentration at 1 h [1, 6]: 216 ng/mL
- concentration at 2 h [1, 5]: 276 ng/mL
- concentration at 2 h [1, 6]: 327 ng/mL
- concentration at 4 h [1, 5]: 378 ng/mL
- concentration at 6 h [1, 5]: 417 ng/mL
- concentration at 6 h [1, 6]: 508 ng/mL
- concentration at 8 h [1, 5]: 416 ng/mL
- concentration at 8 h [1, 6]: 430 ng/mL
- concentration at 24 h [1, 5]: 703 ng/mL
- concentration at 1 h [1, 7]: 1020 ng/mL
- concentration at 2 h [1, 7]: 1100 ng/mL
- concentration at 4 h [1, 7]: 1320 ng/mL
- concentration at 4 h [1, 8]: 1460 ng/mL
- concentration at 6 h [1, 7]: 1470 ng/mL
- concentration at 6 h [1, 8]: 1170 ng/mL
- concentration at 8 h [1, 7]: 1500 ng/mL
- concentration at 8 h [1, 8]: 1450 ng/mL
- concentration at 24 h [1, 7]: 2830 ng/mL
- concentration at 24 h [1, 8]: 2880 ng/mL
- concentration at 1 h [1, 9]: 2120 ng/mL
- concentration at 1 h [1, 10]: 1530 ng/mL
- concentration at 2 h [1, 9]: 2760 ng/mL
- concentration at 4 h [1, 9]: 3940 ng/mL
- concentration at 4 h [1, 10]: 3560 ng/mL
- concentration at 6 h [1, 9]: 6660 ng/mL
- concentration at 8 h [1, 9]: 5770 ng/mL
- concentration at 8 h [1, 10]: 6520 ng/mL
- concentration at 24 h [1, 9]: 8740 ng/mL
- concentration at 24 h [1, 10]: 10700 ng/mL
- Concentration higher than target concentrations ([2]; all dosing solution samples): 1.6-8.0%
- Degradation products ([2]; all dosing solution samples): No evidence of degradation products was observed in any sample
- Impurity profile by HPLC area % [2, 11]: No imp > 0.10 a %
- [KB-1801] determined by HPLC assay [2, 11]: 0.27 mg/mL and 0.26 mg/mL
- Impurity profile by HPLC area % [2, 12]: No imp > 0.10 a %
- [KB-1801] deviation from targeted concentration [2, 12]: +1.3%
- [KB-1801] determined by HPLC assay [2, 12]: 0.76 mg/mL
- Impurity profile by HPLC area % [2, 13]: No imp > 0.10 a %
- [KB-1801] determined by HPLC assay [2, 13]: 2.56 mg/mL and 2.57 mg/mL

— patent US20220202799A1, “PHARMACEUTICAL FORMULATIONS CONTAINING P2Y14 ANTAGONISTS” (priority 2019, published 2022)
